Measurements: BindingDB's records for patent WO2022098807 (Merck Sharp &Amp, 2022)

Biological target: Mitogen-activated protein kinase kinase kinase kinase 1 (Homo sapiens, UniProt Q92918)
Test: HPK1-SLP76 TR-FRET ASSAY

Sequence of Mitogen-activated protein kinase kinase kinase kinase 1 (Q92918 whole entry): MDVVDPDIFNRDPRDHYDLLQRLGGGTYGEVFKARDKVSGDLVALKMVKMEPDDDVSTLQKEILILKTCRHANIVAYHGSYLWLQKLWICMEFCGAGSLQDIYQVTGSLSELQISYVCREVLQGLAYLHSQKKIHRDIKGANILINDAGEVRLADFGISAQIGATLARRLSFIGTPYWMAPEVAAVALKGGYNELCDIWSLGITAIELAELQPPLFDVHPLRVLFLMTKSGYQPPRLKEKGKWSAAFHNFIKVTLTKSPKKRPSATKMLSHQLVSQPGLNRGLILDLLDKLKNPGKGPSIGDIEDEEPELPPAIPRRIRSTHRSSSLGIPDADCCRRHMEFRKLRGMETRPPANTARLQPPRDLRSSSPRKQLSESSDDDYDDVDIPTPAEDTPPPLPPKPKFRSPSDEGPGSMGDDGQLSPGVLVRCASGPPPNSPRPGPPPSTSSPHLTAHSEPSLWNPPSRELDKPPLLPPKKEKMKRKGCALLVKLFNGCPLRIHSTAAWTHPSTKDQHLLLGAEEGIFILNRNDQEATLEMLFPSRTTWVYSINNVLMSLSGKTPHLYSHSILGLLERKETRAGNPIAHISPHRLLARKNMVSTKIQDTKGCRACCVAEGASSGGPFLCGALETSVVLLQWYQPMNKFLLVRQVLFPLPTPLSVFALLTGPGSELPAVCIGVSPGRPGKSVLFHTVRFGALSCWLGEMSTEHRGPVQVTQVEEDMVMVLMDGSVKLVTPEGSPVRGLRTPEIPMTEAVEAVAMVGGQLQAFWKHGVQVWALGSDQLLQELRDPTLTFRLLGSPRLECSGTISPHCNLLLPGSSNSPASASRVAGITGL

| SMILES | IC50 [nM] |
| --- | --- |
| Cc1c(-c2ccc3cnc(Nc4cnn(C5CC6(C5)CC(C5(C)COC5)C6)c4)nc3c2)cnc2c1NCCO2 (stereo not given) [WO2022098807, Example 1-2] | 0.22 |
| Cc1c(-c2ccc3cnc(Nc4cc5n(n4)CCN(C(C)(C)O)C(=O)C5)nc3c2)cnc2c1NCCO2 [WO2022098807, Example 1-8] | 0.67 |
| Cc1c(-c2cc3nc(Nc4cnn(C5(C)CC5)c4)ncc3c(N)c2F)cnc2c1NCCO2 [WO2022098807, Example 2-8] | 0.09 |
| Cc1c(-c2cc3nc(Nc4cnn(C5CCNCC5)c4)ncc3c(N)c2F)cnc2c1NCCO2 [WO2022098807, Example 2-11] | 0.07 |
| Cc1c(-c2cc3nc(Nc4cnn([C@@H]5CCN(C)C5=O)c4)ncc3c(N)c2F)cnc2c1NCCO2 [WO2022098807, Example 2-19] | 0.15 |
| Cc1c(-c2cc3nc(Nc4cc5n(n4)CCN(C(C)C)C(=O)C5)ncc3c(N)c2F)cnc2c1NCCO2 [WO2022098807, Example 2-20] | 0.06 |
| Cc1c(-c2cc3nc(Nc4cnn([C@H]5CCN(C)C5=O)c4)ncc3c(N)c2F)cnc2c1NCCO2 [WO2022098807, Example 2-21] | 0.35 |
| CCn1cc(Nc2ncc3c(N)c(F)c(-c4cnc5c(c4C)NCCO5)cc3n2)cn1 [WO2022098807, Example 2-22] | 0.08 |
| CNC(=O)C12CC(n3cc(Nc4ncc5c(N)c(F)c(-c6cnc7c(c6C)NCCO7)cc5n4)cn3)(C1)C2 [WO2022098807, Example 2-28] | 0.09 |
| Cc1c(-c2cc3nc(Nc4cnn(C)c4C)ncc3c(N)c2F)cnc2c1NCCO2 [WO2022098807, Example 2-30] | 0.05 |
| Cc1c(-c2cc3nc(Nc4cnn(CC(F)F)c4)ncc3c(N)c2F)cnc2c1NCCO2 [WO2022098807, Example 2-32] | 0.05 |
| Cc1nn(C)cc1Nc1ncc2c(N)c(F)c(-c3cnc4c(c3C)NCCO4)cc2n1 [WO2022098807, Example 2-34] | 0.06 |
| Cc1c(-c2cc3nc(Nc4cnn5c4CCC5)ncc3c(N)c2F)cnc2c1NCCO2 [WO2022098807, Example 2-35] | 0.05 |
| Cc1cnsc1Nc1ncc2c(N)c(F)c(-c3cnc4c(c3C)NCCO4)cc2n1 [WO2022098807, Example 2-37] | 0.07 |
| Cc1c(-c2cc3nc(Nc4cnn(C5COC5)c4)ncc3c(N)c2F)cnc2c1NCCO2 [WO2022098807, Example 2-39] | 0.05 |
| Cc1c(-c2c(F)c(N)c3cnc(Nc4cnn(C5CCN(C)CC5)c4)nc3c2Cl)cnc2c1NCCO2 [WO2022098807, Example 2-44] | 0.05 |
| Cc1c(-c2c(F)c(N)c3cnc(Nc4cnn(C5CC5)c4C)nc3c2Cl)cnc2c1NCCO2 [WO2022098807, Example 2-45] | 0.18 |
| Cc1c(-c2cc3nc(Nc4cnn(C56CC(C(C)(C)O)(C5)C6)c4)ncc3c(N)c2F)cnc2c1NCCO2 [WO2022098807, Example 2-46] | 0.05 |
| Cc1c(-c2c(F)c(N)c3cnc(Nc4cnn([C@H]5CCN(C)C5)c4)nc3c2Cl)cnc2c1NCCO2 [WO2022098807, Example 2-47] | 0.18 |
| Cc1c(-c2c(F)c(N)c3cnc(Nc4cnn([C@@H]5CCN(C)C5)c4)nc3c2Cl)cnc2c1NCCO2 [WO2022098807, Example 2-48] | 0.17 |
